Measured values: ChEMBL document CHEMBL1132533, “Synthesis and evaluation of hydroxyproline-derived isoprenyltransferase inhibitors” (Bioorg Med Chem Lett, 1999)

How the values were obtained:
[1] = biological target: Protein farnesyltransferase (Bos taurus, UniProt P29702+P49355); test: Inhibitory concentration was evaluated against Farnesyltransferase in the farnesylation of H-ras protein; type: protein-complex assay
[2] = biological target: Geranylgeranyl transferase type I (Bos taurus, UniProt P29702+Q5EAD5); test: In vitro inhibitory activity against Geranylgeranyl transferase in the geranylgeranylation of H-ras-CAIL protein; type: protein-complex assay
[3] = biological target: Protein farnesyltransferase (Mus musculus, UniProt Q61239+Q8K2I1); test: Inhibitory concentration against Farnesyltransferase for Farnesylation of H-ras protein InNIH 3T3 cells transformed with activated H-ras; type: cell-based, NIH3T3
[4] = In vitro inhibitory activity against Geranylgeranyl transferase in the geranylgeranylation of Rap1A protein protein in NIH 3T3 cells transformed with activated H-ras; type: cell-based, Mus musculus; settings: nih3t3

Compound | IC50 [1] | IC50 [2] | IC50 [3] | IC50 [4]
CSCC[C@@H](NC(=O)[C@H]1C[C@H](Oc2ccccc2)CN1C/C=C/[C@@H](N)CS)C(=O)O | 3.3 µM | 11 µM |  | 
COC(=O)[C@@H](CCSC)NC(=O)[C@@H]1C[C@H](Oc2ccccc2)CN1C/C=C/[C@@H](N)CS |  |  | 5.3 µM | 21.9 µM
COC(=O)[C@H](CCSC)NC(=O)[C@@H]1C[C@H](Oc2ccc(C(F)(F)F)cc2)CN1C/C=C/[C@@H](N)CS |  |  | > 50 µM | > 50 µM
COC(=O)[C@H](CCSC)NC(=O)[C@@H]1C[C@H](Oc2ccc(C(C)C)cc2)CN1C/C=C/[C@@H](N)CS |  |  | 3 µM | 0.39 µM
COC(=O)[C@H](CCSC)NC(=O)[C@@H]1C[C@H](Oc2ccccc2)CN1CCCC[C@@H](N)CS |  |  | 0.35 µM | > 50 µM
COC(=O)[C@H](CCSC)NC(=O)[C@@H]1C[C@H](Oc2ccccc2)CN1C(=O)CCC[C@@H](N)CS |  |  | 2 µM | > 50 µM
CSCC[C@H](NC(=O)[C@@H]1C[C@H](Oc2ccc(C(F)(F)F)cc2)CN1C/C=C/[C@@H](N)CS)C(=O)O | 0.11 µM | 0.11 µM |  | 
CSCC[C@H](NC(=O)[C@@H]1C[C@H](Oc2ccccc2)CN1CCCC[C@@H](N)CS)C(=O)O | 0.02 µM | 3.3 µM |  | 
COC(=O)[C@H](CCSC)NC(=O)[C@@H]1C[C@H](Oc2ccccc2)CN1C[C@H](/C=C/[C@@H](N)CS)C(C)C |  |  | 0.04 µM | > 25 µM
COC(=O)[C@H](CCSC)NC(=O)[C@@H]1C[C@H](Oc2ccc(OC)c(OC)c2)CN1C/C=C/[C@@H](N)CS |  |  | > 50 µM | > 50 µM
CCCCc1ccc(O[C@H]2C[C@@H](C(=O)N[C@@H](CCSC)C(=O)OC)N(C/C=C/[C@@H](N)CS)C2)cc1 |  |  | 3.2 µM | 3.1 µM
CSCC[C@H](NC(=O)[C@@H]1C[C@H](Oc2ccccc2)CN1C(=O)[C@H](/C=C/[C@@H](N)CS)C(C)C)C(=O)O | 0.018 µM | 0.011 µM |  | 
CCCc1ccccc1O[C@H]1C[C@@H](C(=O)N[C@@H](CCSC)C(=O)O)N(C/C=C/[C@@H](N)CS)C1 | 0.21 µM | 0.17 µM |  | 
COC(=O)[C@H](CCSC)NC(=O)[C@@H]1C[C@H](Oc2ccccc2)CN1C(=O)[C@H](/C=C/[C@@H](N)CS)C(C)C |  |  | 0.84 µM | > 50 µM
CSCC[C@H](NC(=O)[C@@H]1C[C@H](Oc2ccccc2)CN1CC/C=C/[C@@H](N)CS)C(=O)O | 0.02 µM | 0.57 µM |  | 
CCCCc1ccc(O[C@H]2C[C@@H](C(=O)N[C@@H](CCSC)C(=O)O)N(C/C=C/[C@@H](N)CS)C2)cc1 | 0.087 µM | 0.18 µM |  | 
CCCc1ccccc1O[C@H]1C[C@H](C(=O)N[C@H](CCSC)C(=O)OC)N(C/C=C/[C@@H](N)CS)C1 |  |  | > 10 µM | > 10 µM

Compound | IC50 [1] | IC50 [2] | IC50 [3] | IC50 [4]
COC(=O)[C@H](CCSC)NC(=O)[C@@H]1C[C@H](Oc2cccc3ccccc23)CN1C/C=C/C(N)CS (some centres not stated) |  |  | 22.5 µM | > 50 µM
COC(=O)[C@H](CCSC)NC(=O)[C@@H]1C[C@H](Oc2cccc3c2CCCC3)CN1C/C=C/C(N)CS (some centres not stated) |  |  | > 10 µM | 3.1 µM
CSCC[C@H](NC(=O)[C@@H]1C[C@H](Oc2cccc3ccccc23)CN1C/C=C/C(N)CS)C(=O)O (some centres not stated) | 0.1 µM | 0.2 µM |  | 
COC(=O)[C@H](CCSC)NC(=O)[C@H]1C[C@H](Oc2ccccc2)CN1C/C=C/[C@@H](N)CS |  |  | > 50 µM | 
COC(=O)[C@H](CCSC)NC(=O)[C@@H]1C[C@@H](Oc2ccccc2)CN1C/C=C/[C@@H](N)CS |  |  | > 50 µM | > 50 µM
CSCC[C@H](NC(=O)[C@@H]1C[C@H](Oc2ccc(-c3ccccc3)cc2)CN1C/C=C/[C@@H](N)CS)C(=O)O | 0.035 µM | 0.25 µM |  | 
COC(=O)[C@H](CCSC)NC(=O)[C@@H]1C[C@H](Oc2ccccc2)CN1CC/C=C/[C@@H](N)CS |  |  | 0.49 µM | > 50 µM
CSCC[C@H](NC(=O)[C@H](/C=C\[C@@H](/C=C/[C@@H](N)CS)C(C)C)Cc1ccccc1)C(=O)O | 0.026 µM | 0.001 µM | 0.37 µM | > 100 µM
CSCC[C@H](NC(=O)[C@@H]1C[C@H](Oc2cccc3c2CCCC3)CN1C/C=C/[C@@H](N)CS)C(=O)O | 0.047 µM | 0.089 µM |  | 
CSCC[C@H](NC(=O)[C@@H]1C[C@@H](Oc2ccccc2)CN1C/C=C/[C@@H](N)CS)C(=O)O | 4 µM | 8 µM |  | 
CSCC[C@H](NC(=O)[C@@H]1C[C@H](Oc2ccccc2)CN1C(=O)CCC[C@@H](N)CS)C(=O)O | 0.002 µM | 0.1 µM |  | 
COC(=O)[C@H](CCSC)NC(=O)[C@@H]1C[C@H](Oc2ccc(-c3ccccc3)cc2)CN1C/C=C/[C@@H](N)CS |  |  | 3.3 µM | 3.2 µM
CSCC[C@H](NC(=O)[C@@H]1C[C@H](Oc2ccc(C(C)C)cc2)CN1C/C=C/[C@@H](N)CS)C(=O)O | 0.082 µM | 0.21 µM |  | 
CSCC[C@H](NC(=O)[C@@H]1C[C@H](Oc2ccccc2)CN1C[C@H](/C=C/[C@@H](N)CS)C(C)C)C(=O)O | 0.017 µM | 0.15 µM |  | 
CSCCC(NC(=O)[C@@H]1C[C@H](Oc2ccccc2)CN1C/C=C/[C@@H](N)CS)C(=O)O (single isomer, unassigned) | 0.057 µM | 0.053 µM |  | 
COc1ccc(O[C@H]2CC(C(=O)NC(CCSC)C(=O)O)N(C/C=C/[C@@H](N)CS)C2)cc1OC (single isomer, unassigned) | 0.45 µM | 67 µM |  | 
